Data taken from US6034096A, “Compounds with anti-inflammatory and immunosuppressive activities” (Italfarmaco S.p.A., priority 1996, dated 2000).
Where a name gives a salt, the structure may show the parent alone.

system: serum TNFα; assay: In vivo LPS-induced TNFα production (serum TNFα, ELISA); parameters: species or system Male BALB/c mice; details: 5.0 ng/kg (so in the source), orally 90 min before LPS (7.5 mg/kg i.p.), serum 2 h after LPS
Description: 2. In vivo LPS-induced TNFα production Male BALB/c mice (18-20 g) were obtained from Harlan-Nossan (Correzzana, Italy); Lipopolysaccharide (LPS) from S. enteritidis (code L-6011) was from Sigma (St. Louis, Mo.); Dexamethasone (Soldesam) from Laboratorio Farmacologico Milanese (Caronno P., Italy).
Mice were treated i.p. with LPS (S. enteritidis, 7.5 mg/kg). Dexamethasone was administered i.p. 30 min. before LPS. Compounds were administered orally 90 min. before LPS. Two hours after LPS administration the anaesthetized animals were sacrificed, blood was collected by cardiac puncture and allowed to coagulate. Serum TNFα was measured by ELISA with "mouse Reagent Sets" (Genzyme, Cambridge, Mass.) according to the manufacturer's instructions and using mouse recombinant TNFα as standard.

How did the “Inhibition (%)” value turn out when `CCN(CC)Cc1ccc2cc(COC(=O)Nc3ccc(C(=O)NO)cc3)ccc2c1` [Example 12, hydrochloride] was run?
The value was 64.3%.

What about the TNFα of the same compound?
Its TNFα is 407 pg/mL.

same assay, conditions: 0.5 mg/kg, orally 90 min before LPS (7.5 mg/kg i.p.), serum 2 h after LPS

`CCN(CC)Cc1ccc2cc(COC(=O)Nc3ccc(C(=O)NO)cc3)ccc2c1` [Example 12, hydrochloride] was tested. Which “Inhibition (%)” value did it give?
The value was 55.0%.

What about the TNFα of the same compound?
Its TNFα is 514 pg/mL.

same assay, conditions: 30 mg/kg, i.p. 30 min before LPS (7.5 mg/kg i.p.), serum 2 h after LPS

For `C[C@@H]1C[C@H]2[C@@H]3CCC4=CC(=O)C=C[C@]4(C)[C@@]3(F)[C@@H](O)C[C@]2(C)[C@@]1(O)C(=O)CO` [Dexamethasone, reference compound], which “Inhibition (%)” value is on record?
Its value is 90.2%.

And the TNFα?
The TNFα was 112 pg/mL.

system: human IL-1β; assay: In vitro cytokines production test (LPS-stimulated human PBMC, IL-1β ELISA); assay type: cell-based; details: 10 ng/ml LPS, 60 min pretreatment, 20 hours culture, read-out: IC50 (inhibition of IL-1β production)
Description: 1. In vitro cytokines production test
The compounds of the invention were tested by in particular on the production of human IL-1β. Mononuclear cells (PBMC) were prepared from peripheral blood ("buffy coat") from healthy donors, by centrifugation over density gradient Ficoll-Hypaque (Biochrom KG, Berlin, Germany). The cells (2,5×10^6 for ml) were cultured at 37° C. under humid atmosphere containing 5% CO2 in 96-wells plates (Nunc) at a final volume of 200 μl. […] The production of cytokines was induced by stimulating the cells with 10 ng/ ml of LPS (lipopolysaccharide) from E. coli serotype 055:B5 (Sigma Chemical Co., St. Louis. Mo.). The cells were pretreated with the compounds of the intention dissolved in DMSO (final concentration: 0.05% […]) for 60 minutes. The compounds and LPS were present during the whole 20 hours of culture. As the negative control, not-stimulated cells were used. At the end of the test, supernatants were collected and the IL-1β production was tested by a specific ELISA assay ("sandwich-type antigen capture", R & D System, Minneapolis, Minn.; all of the tests were carried out in duplicate). A goat polyclonal serum specific for human IL-1β was used, purified by affinity, to cover the 96-wells microtitration plates (Nunc). After washing, the wells were incubated for 2 hours with 3% of boyine serum albumine (BSA) in buffered saline. Recombinant human IL-1β was used to obtain a standard curve for each test and the supernatant samples were diluted to 1/20 and 1/80 with PBS+0.1% of BSA. The plates were then incubated at 4° C. overnight. After washing, the secondary antibody was added, i.e. an anti- human lL-1β murine monoclonal antibody. After incubation and washing, a goat anti-murine Ig-G polyclonal antibody peroxidase-conjugated (Zymed) was added, then the chromogenic substrate tetramethylbenzidine dichloride (Sigma). The reaction was stopped with 4N H2 SO4 and the absorbance at 450 nm was measured with an automatic spectrophotometer (Perkin-Elmer).

How did the IC50 turn out when `O=C(CCCCc1ccccc1)Nc1ccc(C(=O)NO)cc1` [Example 1, 4-(5-Phenylpentanamido)benzohydroxamic acid] was run?
Its IC50 is 305 nM.

`O=C(Nc1ccc(C(=O)NO)cc1)OC/C=C\c1ccccc1` [Example 9] was tested. Which IC50 did it give?
Its IC50 is 72 nM.

With `O=C(Nc1ccc(C(=O)NO)cc1)OCCC(c1ccccc1)c1ccccc1` [Example 10] as the compound, how does the IC50 read?
The IC50 was 101 nM.

For `O=C(Nc1ccc(C(=O)NO)cc1)OCC1CCc2ccccc2C1` (stereo not shown) [Example 5], which IC50 is on record?
Its IC50 is 137 nM.

Which IC50 does the source give for `CCN(CC)Cc1ccc(COC(=O)Nc2ccc(C(=O)NO)cc2)c2ccccc12` [Example 15, hydrochloride] here?
The IC50 was 14 nM.

How did the IC50 turn out when `O=C(Nc1ccc(C(=O)NO)cc1)OC/C=C/c1ccccc1` [Example 8] was run?
The IC50 was 29 nM.

`O=C(Nc1ccc(C(=O)NO)cc1)OCc1ccc2ccccc2c1` [Example 7] was tested. Which IC50 did it give?
The IC50 was 12 nM.

How did the IC50 turn out when `CCCCN(CCCC)Cc1ccc2cc(COC(=O)Nc3ccc(C(=O)NO)cc3)ccc2c1` [Example 14, hydrochloride] was run?
Its IC50 is 382 nM.

`O=C(Nc1ccc(C(=O)NO)cc1)OCc1cccc2ccccc12` [Example 4] was tested. Which IC50 did it give?
The IC50 was 28 nM.

Which IC50 does the source give for `O=C(Nc1ccc(C(=O)NO)cc1)OCCC12CC3CC(CC(C3)C1)C2` [Example 3] here?
Its IC50 is 531 nM.

How did the IC50 turn out when `CC(C)N1Cc2ccccc2CC1COC(=O)NCc1ccc(C(=O)NO)cc1` (stereo not shown) [Example 17, 4-[N-isopropyl-1,2,3,4-tetrahydroisoquinol-3-yl)methyloxycarbamoylmethyl]benzohydroxamic acid hydrochloride] was run?
The IC50 was 21 nM.

How did the IC50 turn out when `O=C(Nc1ccc(C(=O)NO)cc1)OCCCc1ccccc1` [Example 6] was run?
Its IC50 is 43 nM.

`CCN(CC)Cc1ccc2cc(COC(=O)Nc3ccc(C(=O)NO)cc3)ccc2c1` [Example 12, hydrochloride] was tested. Which IC50 did it give?
The IC50 was 96 nM.

With `CCN(CC)Cc1ccc2cc(CNC(=O)Nc3ccc(C(=O)NO)cc3)ccc2c1` [Example 16, hydrochloride] as the compound, how does the IC50 read?
The IC50 was 10 nM.

With `CCCN(CCC)Cc1ccc2cc(COC(=O)Nc3ccc(C(=O)NO)cc3)ccc2c1` [Example 13, hydrochloride] as the compound, how does the IC50 read?
The IC50 was 166 nM.

For `O=C(NCc1ccc(C(=O)NO)cc1)OCC(c1ccccc1)c1ccccc1` [Example 2, 4-[2,2-(Diphenyl)ethoxycarbamoylmethyl]benzohydroxamic acid], which IC50 is on record?
Its IC50 is 163 nM.
